Experiment [1] deals with T1, μ-opioid receptor (Homo sapiens, UniProt P35372). Briefly: μ-opioid receptor radioligand ([3H]-diprenorphine) dose-displacement binding assay, HEK-293 or CHO cells. How it is done: Radioligand dose-displacement binding assays for μ-opioid receptors used 0.3 nM [^3H]-diprenorphine (Perkin Elmer, Shelton, Conn.), with […] membrane protein/well in a final volume of 500 μl binding buffer (10 mM MgCl2, 1 mM EDTA, 5% DMSO, 50 mM HEPES, pH 7.4). Reactions were carried out in the absence or presence of increasing concentrations of unlabeled naloxone. All reactions were conducted in 96-deep well polypropylene plates for 2 hr at room temperature. Binding reactions were terminated by rapid filtration onto 96-well Unifilter GF/C filter plates (Perkin Elmer, Shelton, Conn.), presoaked in 0.5% polyethylenimine using a 96-well tissue harvester (Perkin Elmer, Shelton, Conn.) followed by performing three filtration washes with 500 μl of ice-cold binding buffer. Filter plates were subsequently dried at 50° C. for 2-3 hours. BetaScint scintillation cocktail (Perkin Elmer, Shelton, Conn.) was added (50 l/well), and plates were counted using a Packard Top-Count for 1 min/well. The data were analyzed using the one-site competition curve fitting functions in GraphPad PRISM™ v. 3.0 or higher (San Diego, Calif.), or an in-house function for one-site competition curve-fitting.
T1 sequence (P35372 whole entry, species assumed): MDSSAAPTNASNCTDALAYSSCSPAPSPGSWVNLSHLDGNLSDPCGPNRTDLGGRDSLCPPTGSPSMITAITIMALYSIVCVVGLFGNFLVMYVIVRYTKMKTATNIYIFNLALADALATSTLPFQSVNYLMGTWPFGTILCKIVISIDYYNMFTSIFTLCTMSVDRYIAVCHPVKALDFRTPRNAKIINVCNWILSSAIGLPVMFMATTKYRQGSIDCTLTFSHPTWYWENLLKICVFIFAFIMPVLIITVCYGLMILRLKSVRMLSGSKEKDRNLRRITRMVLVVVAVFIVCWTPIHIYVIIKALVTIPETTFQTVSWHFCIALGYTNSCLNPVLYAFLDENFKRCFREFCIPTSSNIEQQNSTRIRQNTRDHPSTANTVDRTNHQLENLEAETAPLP
(§1) In TABLE 1, binding affinity of certain Compounds of the Invention to the μ-, and κ-opioid receptors in HEK-293 or CHO cells was determined as described above.

The target in experiment [2] is T1, μ-opioid receptor. Briefly: μ-opioid receptor [35S]GTPγS functional assay, HEK-293 or CHO cells. It is filed as biochemical. To be noted: for Emax: HEK-293 or CHO cells, relative to DAMGO. The method, then: [^35S]GTPγS functional assays were conducted using freshly thawed μ-receptor membranes prepared in-house from a cell line expressing recombinant opioid receptor in a HEK-293, CHO or U-2 OS cell background, or purchased from a commercial source (Perkin Elmer, Shelton, Conn.; or DiscovRx, Fremont, Calif.). Assay reactions were prepared by sequentially adding the following reagents to binding buffer (100 mM NaCl, 10 mM MgCl2, 20 mM HEPES, pH 7.4) on ice (final concentrations indicated): membrane protein (0.026 mg/mL), saponin ([…]), GDP ([…]) and [^35S]GTPγS (0.20 nM; Perkin Elmer, Shelton, Conn.). The prepared membrane solution (190 l/well) was transferred to 96-shallow well polypropylene plates containing 10 μl of 20× concentrated stock solutions of the agonist [D-Ala^2, N-methyl-Phe^4 Gly-ol^5]-enkephalin (DAMGO) prepared in dimethyl sulfoxide (DMSO). Plates were incubated for 30 min at about 25° C. with shaking. Reactions were terminated by rapid filtration onto 96-well Unifilter GF/B filter plates (Perkin Elmer, Shelton, Conn.) using a 96-well tissue harvester (Perkin Elmer, Shelton, Conn.) followed by three filtration washes with 200 μl of ice-cold wash buffer (10 mM NaH2PO4, 10 mM Na2HPO4, pH 7.4). Filter plates were subsequently dried at 50° C. for 2-3 hr. BetaScint scintillation cocktail (Perkin Elmer, Shelton, Conn.) was added (50 μl/well) and plates were counted using a Packard Top-Count for 1 min/well. Data were analyzed using the sigmoidal dose-response curve fitting functions in GraphPad PRISM v. 3.0, or an in-house function for non-linear, sigmoidal dose-response curve-fitting.
μ GTP EC50 is the concentration of a compound providing 50% of the maximal response for the compound at a μ-opioid receptor.
μ GTP Emax (%) is the maximal effect elicited by a compound relative to the effect elicited by DAMGO, a standard agonist. Generally, the μ GTP Emax (%) value measures the efficacy of a compound to treat or prevent pain or other Conditions.
In TABLE 2, activity response of certain Compounds of the Invention at the μ- and κ-opioid receptors using HEK-293 or CHO cells was determined as described above for functional assays.
(GTPγS resists hydrolysis and so accumulates on activated G proteins.)

For experiment [3], the target named is T1, μ-opioid receptor. Briefly: μ-opioid receptor [35S]GTPγS functional assay, U-2 OS cells. The experiment is classed as biochemical. On the set-up: host or cells: U-2 OS cells. To be noted: for Emax: U2-OS cells, relative to DAMGO. In short, it runs like this: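 U-2 OS membranes expressing recombinant human μ-receptor (0.026 mg/mL) were incubated with compound, […], saponin and [35S]GTPγS 0.20 nM in HEPES/NaCl/MgCl2 buffer pH 7.4 for 30 min at about 25° C. Filter-bound radioactivity gave sigmoidal fits for EC50; Emax is relative to DAMGO.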

In experiment [4] the target is T2, human κ opioid receptor (Homo sapiens, UniProt P41145). The experiment can be described thus: κ-opioid receptor radioligand ([3H]-U69,593) dose-displacement binding assay, HEK-293 or CHO cells. On the set-up: expressed in transfected cells; host or cells: HEK-293 cells (in-house prep). How it is done: Membranes from recombinant HEK-293 cells expressing the human K opioid receptor (cloned in house) were prepared by lysing cells in ice cold hypotonic buffer (2.5 mM MgCl2, 50 mM HEPES, pH 7.4) (10 mL/10 cm dish) followed by homogenization with a tissue grinder/Teflon pestle. Membranes were collected by centrifugation at 30,000×g for 15 min at 4° C. and pellets were resuspended in hypotonic buffer to a final concentration of 1-3 mg/mL. Protein concentrations were determined using the BioRad protein assay reagent with bovine serum albumen as standard. Aliquots of κ receptor membranes were stored at −80° C.
T2 sequence (P41145 whole entry): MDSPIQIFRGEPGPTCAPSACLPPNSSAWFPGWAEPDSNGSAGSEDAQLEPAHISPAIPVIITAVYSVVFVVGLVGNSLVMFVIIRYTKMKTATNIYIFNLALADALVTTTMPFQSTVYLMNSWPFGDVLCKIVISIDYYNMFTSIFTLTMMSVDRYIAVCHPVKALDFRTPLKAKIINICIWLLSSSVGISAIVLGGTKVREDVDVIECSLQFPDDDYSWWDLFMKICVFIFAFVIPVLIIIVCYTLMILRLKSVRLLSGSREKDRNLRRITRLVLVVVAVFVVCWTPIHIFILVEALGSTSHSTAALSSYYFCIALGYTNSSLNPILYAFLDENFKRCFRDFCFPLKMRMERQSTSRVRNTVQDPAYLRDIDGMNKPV
Radioligand dose displacement assays used 0.4 nM [^3H]-U69,593 (GE Healthcare, Piscataway, N.J.; 40 Ci/mmole) with 15 μg membrane protein (recombinant K opioid receptor expressed in HEK 293 cells; in-house prep) in a final volume of 200 μl binding buffer (5% DMSO, 50 mM Trizma base, pH 7.4). Non-specific binding was determined in the presence of 10 μM unlabeled naloxone or U69,593. All reactions were performed in 96-well polypropylene plates for 1 hr at a temperature of about 25° C. Binding reactions were terminated by rapid filtration onto 96-well Unifilter GF/C filter plates (Perkin Elmer, Shelton, Conn.) presoaked in 0.5% polyethylenimine (Sigma). Harvesting was performed using a 96-well tissue harvester (Perkin Elmer, Shelton, Conn.) followed by five filtration washes with 200 μl ice-cold binding buffer. Filter plates were subsequently dried at 50° C. for 1-2 hours. Fifty μl/well scintillation cocktail (Perkin Elmer, Shelton, Conn.) was added and plates were counted in a Packard Top-Count for 1 min/well.
as §1

Experiment [5] deals with T2, human κ opioid receptor. The experiment can be described thus: κ-opioid receptor [35S]GTPγS functional assay, U-2 OS cells. The experiment is classed as biochemical. On the set-up: expressed in transfected cells; host or cells: U-2 OS cells (in-house membranes). To be noted: for Emax: U2-OS cells, relative to U69,593. In short, it runs like this:
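Membranes from U-2 OS cells expressing human κ receptor (0.026 μg/μl protein) were incubated with agonist, 10 μg/mL saponin, 3 μM GDP and 0.20 nM [35S]GTPγS in pH 7.4 HEPES buffer for 30 min at about 25 °C. Bound radioactivity was measured after filtration. EC50 was taken at half-maximal response; Emax is relative to U69,593.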

A value given as a limit tells only on which side of the number the result lay.

As a reminder, the Ki is a measure of affinity in units of concentration, obtained from inhibition or displacement. Broadly, the EC50 is the midpoint of the concentration-response curve. A higher EC50 goes with weaker potency. One may read the Emax as the greatest response seen or fitted, relative to the assay's reference. With `N=C(N)NCCCCN[C@@H]1CC[C@@]2(O)[C@H]3Cc4ccc(O)cc4[C@@]2(CCN3CC2CC2)C1` [Compound 16, 1-(4-(((4bR,6R,8aS,9R)-11-(cyclopropylmethyl)-3,8a-dihydroxy-6,7,8,8a,9,10-hexahydro-5H-9,4b-(epiminoethano)phenanthren-6-yl)amino)butyl)guanidine], the inhibition constant Ki in experiment [1] came to 70.5 ± 13.8 nM; in experiment [4], 0.48 ± 0.055 nM. Also, the figures for the EC50 in experiment [2], in experiment [3] and in experiment [5] were 811 ± 442 nM, 53.7 ± 11.5 nM and 15 ± 1.15 nM, respectively. Besides, the Emax in experiment [2] stood at 9 ± 0.58%; in experiment [3] it was 78 ± 3.61%; in experiment [5], 105 ± 2.89%.
Take `CN(C)[C@H]1CC[C@@]2(O)[C@H]3Cc4ccc(O)cc4[C@@]2(CCN3CC2CC2)C1` [Compound 10, (4bR,6S,8aS,9R)-11-(cyclopropylmethyl)-6-(dimethylamino)-5,6,7,8,9,10-hexahydro-8aH-9,4b-(epiminoethano)phenanthrene-3,8a-diol]: the Ki in experiment [1] amounted to 3.84 ± 1.36 nM; in experiment [4], 0.057 ± 0.01 nM. The EC50 in experiment [2] was greater than 20000 nM; in experiment [3], 4.69 ± 0.74 nM; in experiment [5] it was 0.79 ± 0.07 nM. Also, the values for the Emax in experiment [2], in experiment [3] and in experiment [5] were 2.5%, 33 ± 1.15% and 101 ± 6.23%, respectively.
With `N=C(N)NCCCN[C@@H]1CC[C@@]2(O)[C@H]3Cc4ccc(O)cc4[C@@]2(CCN3CC2CC2)C1` [Compound 15, 1-(3-(((4bR,6R,8aS,9R)-11-(cyclopropylmethyl)-3,8a-dihydroxy-6,7,8,8a,9,10-hexahydro-5H-9,4b-(epiminoethano)phenanthren-6-yl)amino)propyl)guanidine], the Ki turned out to be 54.1 ± 10.1 nM in experiment [1] and 0.53 ± 0.13 nM in experiment [4]. Besides, the EC50 worked out at 1110 ± 447 nM in experiment [2], 41.5 ± 8.55 nM in experiment [3] and 12.8 ± 1.3 nM in experiment [5]. The Emax in experiment [2] was 11.3 ± 0.33%; in experiment [3], 76.3 ± 3.38%; in experiment [5] it was 108 ± 2.65%.
In the case of `N=C(N)NCCN[C@@H]1CC[C@@]2(O)[C@H]3Cc4ccc(O)cc4[C@@]2(CCN3CC2CC2)C1` [Compound 12, 1-(2-(((4bR,6R,8aS,9R)-11-(cyclopropylmethyl)-3,8a-dihydroxy-6,7,8,8a,9,10-hexahydro-5H-9,4b-(epiminoethano)phenanthren-6-yl)amino)ethyl)guanidine], the values for the inhibition constant (Ki) in experiment [1] and in experiment [4] were 53.2 ± 8.9 nM and 0.29 ± 0.13 nM, respectively. The half-maximal effective concentration (EC50) is greater than 20000 nM in experiment [2], 32.7 ± 2.82 nM in experiment [3] and 5.06 ± 0.29 nM in experiment [5]. Also, the Emax in experiment [2] is 5.33 ± 0.88%; in experiment [3] it was 64.7 ± 5.17%; in experiment [5], 105 ± 1.76%.
Consider `N=C(N)Nc1ccc(N[C@@H]2CC[C@@]3(O)[C@H]4Cc5ccc(O)cc5[C@@]3(CCN4CC3CC3)C2)cc1` [Compound 24, 1-(4-(((4bR,6R,8aS,9R)-11-(cyclopropylmethyl)-3,8a-dihydroxy-6,7,8,8a,9,10-hexahydro-5H-9,4b-(epiminoethano)phenanthren-6-yl)amino)phenyl)guanidine], for which the figures for the Ki in experiment [1] and in experiment [4] were 8.42 ± 2.88 nM and 0.24 ± 0.021 nM, respectively. In addition, the EC50 in experiment [2] is greater than 20000 nM; in experiment [3] it was 8.14 ± 0.94 nM; in experiment [5] it was 2.91 ± 0.18 nM. Also, the Emax in experiment [2] came to 4.33 ± 1.45%; in experiment [3] it was 55.3 ± 2.91%; in experiment [5], 104 ± 4.04%.
Take `COc1ccc2c(c1)[C@]13CCN(CC4CC4)[C@H](C2)[C@]1(O)C[C@H](C)[C@H](O)C3` [Compound 3, (4bR,6R,7S,8aS,9R)-11-(cyclopropylmethyl)-3-methoxy-7-methyl-5,6,7,8,9,10-hexahydro-8aH-9,4b-(epiminoethano)phenanthrene-6,8a-diol]: the figures for the Ki in experiment [1] and in experiment [4] were 6140 ± 963 nM and 3010 ± 339 nM, respectively. In experiment [2], this compound came in with an EC50 of 2750 nM. Further, the Emax in experiment [2] stood at 58.7 ± 4.18%.
As to `NCCN[C@@H]1CC[C@@]2(O)[C@H]3Cc4ccc(O)cc4[C@@]2(CCN3CC2CC2)C1` [Compound 11, (4bR,6R,8aS,9R)-6-((2-aminoethyl)amino)-11-(cyclopropylmethyl)-5,6,7,8,9,10-hexahydro-8aH-9,4b-(epiminoethano)phenanthrene-3,8a-diol], the values for the inhibition constant (Ki) in experiment [1] and in experiment [4] were 71 ± 28.1 nM and 0.29 ± 0.049 nM, respectively. The results for the concentration giving a half-maximal response (EC50) in experiment [2], in experiment [3] and in experiment [5] were greater than 20000 nM, 37.9 ± 12 nM and 2.75 ± 0.48 nM, respectively. Further, the maximal response (Emax) in experiment [2] is 6.33 ± 1.67%; in experiment [3] it was 70 ± 8.08%; in experiment [5] it was 119 ± 0.58%.
For `N=C(N)NCCCC(=O)N[C@@H]1CC[C@@]2(O)[C@H]3Cc4ccc(O)cc4[C@@]2(CCN3CC2CC2)C1` [Compound 22, N-((4bR,6R,8aS,9R)-11-(cyclopropylmethyl)-3,8a-dihydroxy-6,7,8,8a,9,10-hexahydro-5H-9,4b-(epiminoethano)phenanthren-6-yl)-4-guanidinobutanamide], the Ki in experiment [1] stood at 251 ± 29.4 nM; in experiment [4], 1.85 ± 0.22 nM. Moreover, the EC50 in experiment [2] is greater than 20000 nM; in experiment [3], 247 ± 25.5 nM; in experiment [5] it was 27.1 ± 4.18 nM. Moreover, the results for the Emax in experiment [2], in experiment [3] and in experiment [5] were 5 ± 1.53%, 60 ± 5.51% and 107 ± 2.33%, respectively.
With `COc1ccc2c(c1)[C@]13CCN(CC4CC4)[C@H](C2)[C@]1(O)C[C@H](CO)[C@H](O)C3` [Compound 7, (4bR,6R,7R,8aS,9R)-11-(cyclopropylmethyl)-7-(hydroxymethyl)-3-methoxy-5,6,7,8,9,10-hexahydro-8aH-9,4b-(epiminoethano)phenanthrene-6,8a-diol], the Ki stood at 10800 ± 843 nM in experiment [1] and 7300 ± 1640 nM in experiment [4]. Moreover, a half-maximal response in experiment [2] (EC50) required 4910 nM. Also, the Emax in experiment [2] amounted to 53.7 ± 4.37%.

For the origin of these results see patent publication US20200148646A1, “6-S[…] 7-S[…] ANALOGS AND THE USE THEREOF” (Purdue Pharma, L.P., priority 2013, published 2020).
